From ChEMBL document CHEMBL1152450 (J Med Chem, 2009)

How the values were obtained:
[1] = test system: SARS-CoV; experiment: Antiviral activity against SARS coronavirus in african green monkey Vero E6 cells assessed as inhibition of replication after 48 hrs; type: functional, organism-based, Severe acute respiratory syndrome-related coronavirus
[2] = Inhibition of SARS coronavirus PLpro residues 1541-1855 expressed in Escherichia coli; set-up: species or system Severe acute respiratory syndrome-related coronavirus
[3] = Severe acute respiratory syndrome-related coronavirus, Vero, 48 h, read-out: EC50

| Structure (SMILES) | EC50 ([1]; vero) | IC50 [2] | further results |
| --- | --- | --- | --- |
| Cc1ccc(CNC(=O)OC(C)(C)C)cc1C(=O)N[C@H](C)c1cccc2ccccc12 | Not Active |  |  |
| CCC(NC(=O)c1ccccc1C)c1ccc2ccccc2c1 (racemic) |  | Not Active |  |
| Cc1ccc(N)cc1C(=O)NC(C)(C)c1cccc2ccccc12 | Not Active |  |  |
| Cc1ccc(CN)cc1C(=O)N[C@H](C)c1cccc2ccccc12 |  |  | EC50 [1, 3]: 6 µM |
| C[C@@H](NC(=O)c1ccccc1O)c1ccc2ccccc2c1 |  | Not Active |  |
| CNCc1ccc(C)c(C(=O)N[C@H](C)c2cccc3ccccc23)c1 |  |  | EC50 [1, 3]: 5.2 µM |
| Cc1ccccc1C(=O)N[C@H](C)c1ccc2ccccc2c1 | Not Active |  |  |
| Cc1cccc(C(=O)N[C@H](C)c2ccc3ccccc3c2)c1 | Not Active |  |  |
| Cc1ccccc1C(=O)NC(C)c1ccc2ccccc2c1 (racemic) | Not Active |  |  |
| C[C@@H](NC(=O)c1ccc(NC(=O)OC(C)(C)C)cc1)c1ccc2ccccc2c1 |  | Not Active |  |
| Cc1ccccc1C(=O)NC(c1ccccc1)c1ccc2ccccc2c1 (racemic) |  | Not Active |  |
